The conditions of the data set: Liquid, Closed cell (Static) method.

Structures are written as SMILES. Numbers after ± are expanded uncertainties.

The vapor or sublimation pressure is the equilibrium pressure above the liquid or solid. `CCCC` [butane]: under “318.4 K”, the “vapor or sublimation pressure” value came to 436.55 ± 1.9 kPa.

As to `CCOC(C)=O` [ethyl acetate], under “318.4 K”, the “vapor or sublimation pressure” value worked out at 31.37 ± 0.42 kPa.

In the case of `CC(C)C` [2-methylpropane], the “vapor or sublimation pressure” value (318.39 K) was 607.54 ± 2.6 kPa.

Turning to `C/C=C\C` [(Z)-2-butene], the “vapor or sublimation pressure” value (318.4 K) was 391.45 ± 1.8 kPa.

Consider `C=CCC` [1-butene], for which the “vapor or sublimation pressure” value (318.42 K) is on record as 525.55 ± 2.3 kPa.

In the case of `C=C(C)C` [2-methylpropene], the “vapor or sublimation pressure” value (318.4 K) amounted to 538.15 ± 2.3 kPa.

The values above are taken from the NIST ThermoML archive (doi:10.1016/j.fluid.2004.10.023).
